Reference: ChEMBL document CHEMBL3526111, “In vitro hepatotoxicity and cytochrome P450 induction and inhibition characteristics of carnosic acid, a dietary supplement with antiadipogenic properties” (Drug Metab Dispos, 2012)

Tests used:
Cytochrome P450 3A4 = Cytochrome P450 3A4 (Homo sapiens, UniProt P08684); experiment: Inhibition of CYP3A4 activity in human hepatocytes after 30 mins by liquid chromatography/tandem mass spectroscopy; type: ADME, cell-based, Hepatocyte
Hepatocyte [1] = experiment: Cytotoxicity against human hepatocytes assessed as loss of nuclei after 24 hrs at 50 to 100 uM; type: cell-based
Hepatocyte [2] = experiment: Cytotoxicity against human hepatocytes assessed as cytoplasm granulation with vacuoles after 24 hrs at 50 to 100 uM; type: cell-based
[3] = Cytotoxicity against human hepatocytes assessed as cell viability after 24 hrs at 100 uM by ATP detection based assay; design: species or system Hepatocyte; details: read-out: Activity
Hepatocyte [4] = experiment: Cytotoxicity against human hepatocytes assessed as reduction in cell viability after 4 hrs by ATP detection based assay
Hepatocyte [5] = experiment: Cytotoxicity against human hepatocytes assessed as reduction in cell viability after 24 hrs by ATP detection based assay
Hepatocyte [6] = experiment: Cytotoxicity against human hepatocytes assessed as reduction in cell viability after 24 hrs by LDH release assay; type: cell-based
Hepatocyte [7] = experiment: Induction of apoptosis in human hepatocytes assessed as caspase 3/7 activation by caspase-Glo 3/7 assay; type: cell-based
CYP3A4 [8] = experiment: Induction of CYP3A4 mRNA expression in human hepatocytes at 10 uM after 48 hrs relative to untreated control; type: ADME, cell-based, Hepatocyte; details: read-out: FC
CYP2B6 [9] = experiment: Induction of CYP2B6 mRNA expression in human hepatocytes at 10 uM after 48 hrs relative to untreated control; type: ADME, cell-based, Hepatocyte; details: read-out: FC
SULT2A1 = experiment: Induction of SULT2A1 mRNA expression in human hepatocytes at 10 uM after 48 hrs relative to untreated control; type: cell-based, Hepatocyte; details: read-out: FC
CYP1A2 = biological target: T1, CYP1A2 (Homo sapiens, UniProt P05177); experiment: Time dependent inhibition of CYP1A2 activity in human hepatocytes after 30 mins by liquid chromatography/tandem mass spectroscopy; type: ADME, cell-based, Hepatocyte
T1 sequence (P05177 whole entry): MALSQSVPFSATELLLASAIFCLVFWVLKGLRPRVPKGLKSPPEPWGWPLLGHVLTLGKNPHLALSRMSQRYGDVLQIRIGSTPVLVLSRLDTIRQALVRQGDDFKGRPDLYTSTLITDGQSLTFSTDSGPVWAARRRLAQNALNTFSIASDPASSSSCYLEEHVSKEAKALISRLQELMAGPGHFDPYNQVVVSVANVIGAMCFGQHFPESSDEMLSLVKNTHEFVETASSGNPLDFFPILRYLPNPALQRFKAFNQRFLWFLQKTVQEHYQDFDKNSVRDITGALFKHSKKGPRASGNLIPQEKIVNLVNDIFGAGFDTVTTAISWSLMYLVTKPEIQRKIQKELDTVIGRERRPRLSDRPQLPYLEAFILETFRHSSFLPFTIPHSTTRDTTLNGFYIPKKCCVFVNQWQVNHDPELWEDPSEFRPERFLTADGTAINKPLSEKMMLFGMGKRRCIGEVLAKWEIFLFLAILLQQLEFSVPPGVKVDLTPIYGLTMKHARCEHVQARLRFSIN

CYP2B6 [10] = biological target: T2, CYP2B6 (Homo sapiens, UniProt P20813); experiment: Time dependent inhibition of CYP2B6 activity in human hepatocytes after 30 mins by liquid chromatography/tandem mass spectroscopy; type: ADME, cell-based, Hepatocyte
T2 sequence (P20813 whole entry): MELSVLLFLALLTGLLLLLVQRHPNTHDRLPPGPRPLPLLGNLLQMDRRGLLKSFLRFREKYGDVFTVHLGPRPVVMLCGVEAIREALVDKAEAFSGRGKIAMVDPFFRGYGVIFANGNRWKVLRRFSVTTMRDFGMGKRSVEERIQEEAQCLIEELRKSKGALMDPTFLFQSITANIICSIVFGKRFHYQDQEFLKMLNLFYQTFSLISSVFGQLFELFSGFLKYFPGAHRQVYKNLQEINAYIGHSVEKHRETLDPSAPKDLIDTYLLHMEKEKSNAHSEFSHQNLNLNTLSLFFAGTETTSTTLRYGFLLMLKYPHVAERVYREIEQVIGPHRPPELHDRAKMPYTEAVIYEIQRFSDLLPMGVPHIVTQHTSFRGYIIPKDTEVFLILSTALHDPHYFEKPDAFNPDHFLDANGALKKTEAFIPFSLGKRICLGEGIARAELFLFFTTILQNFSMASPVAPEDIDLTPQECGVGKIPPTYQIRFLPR

CYP2C8 = biological target: T3, CYP2C8 (Homo sapiens, UniProt P10632); experiment: Time dependent inhibition of CYP2C8 activity in human hepatocytes after 30 mins by liquid chromatography/tandem mass spectroscopy; type: ADME, cell-based, Hepatocyte
T3 sequence (P10632 whole entry): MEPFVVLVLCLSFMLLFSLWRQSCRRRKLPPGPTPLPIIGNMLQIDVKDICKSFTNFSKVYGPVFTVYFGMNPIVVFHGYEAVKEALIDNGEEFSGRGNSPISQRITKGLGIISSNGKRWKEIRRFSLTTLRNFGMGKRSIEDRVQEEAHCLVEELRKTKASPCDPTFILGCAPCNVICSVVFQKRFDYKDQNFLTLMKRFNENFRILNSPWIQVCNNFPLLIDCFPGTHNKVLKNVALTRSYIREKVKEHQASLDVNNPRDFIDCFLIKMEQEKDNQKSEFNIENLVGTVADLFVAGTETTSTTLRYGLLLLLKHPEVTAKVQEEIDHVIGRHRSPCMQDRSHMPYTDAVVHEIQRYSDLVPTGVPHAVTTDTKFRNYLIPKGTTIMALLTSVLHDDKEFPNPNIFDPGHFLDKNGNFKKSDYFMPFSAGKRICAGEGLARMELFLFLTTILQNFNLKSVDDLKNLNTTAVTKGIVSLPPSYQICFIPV

CYP2C9 = CYP2C9 (Homo sapiens, UniProt P11712); experiment: Time dependent inhibition of CYP2C9 activity in human hepatocytes after 30 mins by liquid chromatography/tandem mass spectroscopy; type: ADME, cell-based, Hepatocyte
CYP2C9, sequence (P11712 whole entry): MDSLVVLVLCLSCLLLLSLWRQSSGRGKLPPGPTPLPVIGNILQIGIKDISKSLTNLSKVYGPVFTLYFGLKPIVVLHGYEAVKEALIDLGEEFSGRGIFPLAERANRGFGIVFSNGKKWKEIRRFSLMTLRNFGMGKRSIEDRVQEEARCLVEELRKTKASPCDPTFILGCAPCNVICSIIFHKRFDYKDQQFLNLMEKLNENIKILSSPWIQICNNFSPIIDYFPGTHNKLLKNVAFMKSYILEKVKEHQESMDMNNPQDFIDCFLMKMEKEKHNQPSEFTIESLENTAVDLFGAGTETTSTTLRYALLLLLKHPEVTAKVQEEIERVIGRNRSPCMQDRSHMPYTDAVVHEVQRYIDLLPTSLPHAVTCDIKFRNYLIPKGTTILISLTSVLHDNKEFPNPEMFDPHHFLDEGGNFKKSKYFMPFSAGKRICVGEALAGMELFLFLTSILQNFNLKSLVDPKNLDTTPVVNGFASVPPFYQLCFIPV

CYP2C19 = CYP2C19 (Homo sapiens, UniProt P33261); experiment: Time dependent inhibition of CYP2C19 activity in human hepatocytes after 30 mins by liquid chromatography/tandem mass spectroscopy; type: ADME, cell-based, Hepatocyte
CYP2C19, sequence (P33261 whole entry): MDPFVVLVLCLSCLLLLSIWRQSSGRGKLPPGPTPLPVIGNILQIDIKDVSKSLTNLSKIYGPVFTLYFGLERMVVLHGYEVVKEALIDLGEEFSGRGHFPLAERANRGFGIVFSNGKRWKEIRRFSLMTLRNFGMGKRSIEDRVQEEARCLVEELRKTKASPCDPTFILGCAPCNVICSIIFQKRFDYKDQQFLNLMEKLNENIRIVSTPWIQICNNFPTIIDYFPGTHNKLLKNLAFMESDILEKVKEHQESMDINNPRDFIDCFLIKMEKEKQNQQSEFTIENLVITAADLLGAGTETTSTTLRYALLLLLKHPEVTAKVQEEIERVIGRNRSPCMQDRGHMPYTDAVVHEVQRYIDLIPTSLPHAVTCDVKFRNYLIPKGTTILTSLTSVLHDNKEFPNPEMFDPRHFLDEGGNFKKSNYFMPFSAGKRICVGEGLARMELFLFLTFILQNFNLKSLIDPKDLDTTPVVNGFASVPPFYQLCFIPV

CYP2D6 = CYP2D6 (Homo sapiens, UniProt P10635); experiment: Time dependent inhibition of CYP2D6 activity in human hepatocytes after 30 mins by liquid chromatography/tandem mass spectroscopy; type: ADME, cell-based, Hepatocyte
CYP2D6, sequence (P10635 whole entry): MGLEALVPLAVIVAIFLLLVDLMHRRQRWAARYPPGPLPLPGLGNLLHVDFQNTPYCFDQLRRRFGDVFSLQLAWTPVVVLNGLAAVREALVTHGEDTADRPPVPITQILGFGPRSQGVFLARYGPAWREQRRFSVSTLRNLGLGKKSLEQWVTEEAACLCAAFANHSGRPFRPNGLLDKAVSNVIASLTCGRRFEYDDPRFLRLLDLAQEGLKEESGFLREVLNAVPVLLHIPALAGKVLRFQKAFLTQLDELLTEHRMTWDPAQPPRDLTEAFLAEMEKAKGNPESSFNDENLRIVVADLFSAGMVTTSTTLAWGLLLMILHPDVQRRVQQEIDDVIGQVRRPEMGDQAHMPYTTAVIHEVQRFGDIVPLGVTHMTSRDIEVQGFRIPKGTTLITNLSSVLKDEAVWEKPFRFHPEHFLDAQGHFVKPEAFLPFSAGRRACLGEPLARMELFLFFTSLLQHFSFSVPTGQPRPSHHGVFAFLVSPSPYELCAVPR

CYP2E1 = CYP2E1 (Homo sapiens, UniProt P05181); experiment: Time dependent inhibition of CYP2E1 activity in human hepatocytes after 30 mins by liquid chromatography/tandem mass spectroscopy; type: ADME, cell-based, Hepatocyte
CYP2E1, sequence (P05181 whole entry): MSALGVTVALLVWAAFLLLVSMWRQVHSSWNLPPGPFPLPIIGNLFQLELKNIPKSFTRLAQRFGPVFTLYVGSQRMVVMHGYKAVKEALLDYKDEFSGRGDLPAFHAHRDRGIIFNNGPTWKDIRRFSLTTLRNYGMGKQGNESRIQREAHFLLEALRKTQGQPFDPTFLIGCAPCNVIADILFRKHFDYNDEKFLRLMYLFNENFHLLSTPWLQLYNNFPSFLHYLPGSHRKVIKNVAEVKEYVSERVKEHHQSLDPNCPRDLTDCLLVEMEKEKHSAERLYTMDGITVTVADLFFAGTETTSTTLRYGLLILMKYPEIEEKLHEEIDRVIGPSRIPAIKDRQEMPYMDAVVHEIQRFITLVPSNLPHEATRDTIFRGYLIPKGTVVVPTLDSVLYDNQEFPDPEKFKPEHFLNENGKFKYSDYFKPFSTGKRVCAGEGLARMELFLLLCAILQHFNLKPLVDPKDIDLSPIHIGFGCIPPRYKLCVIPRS

CYP3A4 [11] = biological target: CYP3A4 (Homo sapiens, UniProt P08684); experiment: Time dependent inhibition of CYP3A4 activity in human hepatocytes after 30 mins by liquid chromatography/tandem mass spectroscopy; type: ADME, cell-based, Hepatocyte
CYP3A4 (Homo sapiens, UniProt P08684), sequence (P08684 whole entry): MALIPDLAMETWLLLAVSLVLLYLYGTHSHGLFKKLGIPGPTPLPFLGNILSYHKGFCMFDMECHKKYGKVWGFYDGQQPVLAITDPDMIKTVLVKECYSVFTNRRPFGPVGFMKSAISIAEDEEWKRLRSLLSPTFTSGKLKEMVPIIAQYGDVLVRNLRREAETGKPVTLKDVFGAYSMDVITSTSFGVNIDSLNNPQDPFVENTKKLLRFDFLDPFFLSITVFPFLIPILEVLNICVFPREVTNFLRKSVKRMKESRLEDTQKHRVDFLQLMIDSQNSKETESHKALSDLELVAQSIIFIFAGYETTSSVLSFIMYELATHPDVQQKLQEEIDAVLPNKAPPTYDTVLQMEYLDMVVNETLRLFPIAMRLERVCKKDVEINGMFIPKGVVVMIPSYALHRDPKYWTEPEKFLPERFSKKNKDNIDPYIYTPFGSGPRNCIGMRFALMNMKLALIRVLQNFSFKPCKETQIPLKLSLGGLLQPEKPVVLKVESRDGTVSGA

Cytochrome P450 2C9 = Cytochrome P450 2C9 (Homo sapiens, UniProt P11712); experiment: Inhibition of CYP2C9 activity in human hepatocytes after 30 mins by liquid chromatography/tandem mass spectroscopy; type: ADME, cell-based, Hepatocyte
Cytochrome P450 2C9, sequence (P11712 whole entry): as the sequence (P11712 whole entry) above

Hepatocyte [12] = experiment: Cytotoxicity against human hepatocytes assessed as reduction in cell viability after 4 hrs by LDH release assay; type: cell-based

Cytochrome P450 3A4, sequence (P08684 whole entry): as the sequence (P08684 whole entry) above

For `CC(C)c1cc2c(c(O)c1O)[C@@]1(C(=O)O)CCCC(C)(C)[C@@H]1CC2` [CARNOSIC ACID], which Ki (Cytochrome P450 3A4) is on record?
The Ki was 4.3 µM.

And the Activity (Hepatocyte [1])?
The Activity was “Toxic”.

And the Activity (Hepatocyte [2])?
Its Activity is “Toxic”.

What about the viability at 24 h, 100 µM [3] of the same compound?
Its viability at 24 h, 100 µM is less than 10%.

And the EC50 (Hepatocyte [4])?
The EC50 was 95.7 µM.

What about the EC50 (Hepatocyte [5]) of the same compound?
Its EC50 is 94.8 µM.

And the EC50 (Hepatocyte [6])?
Its EC50 is “Not Active”.

And the Activity (Hepatocyte [7])?
Its Activity is “Non-toxic”.

What about the fold induction at 48 h, 10 µM (CYP3A4 [8]) of the same compound?
Its fold induction at 48 h, 10 µM is 13.9.

And the fold induction at 48 h, 10 µM (CYP2B6 [9])?
The fold induction at 48 h, 10 µM was 4.5.

And the fold induction at 48 h, 10 µM (SULT2A1)?
The fold induction at 48 h, 10 µM was 2.4.

And the inhibition at 0.5 h (CYP1A2)?
Its inhibition at 0.5 h is less than 11%.

What about the inhibition at 0.5 h (CYP2B6 [10]) of the same compound?
The inhibition at 0.5 h was less than 11%.

And the inhibition at 0.5 h (CYP2C8)?
Its inhibition at 0.5 h is less than 11%.

What about the inhibition at 0.5 h (CYP2C9) of the same compound?
The inhibition at 0.5 h was less than 11%.

And the inhibition at 0.5 h (CYP2C19)?
Its inhibition at 0.5 h is less than 11%.

And the inhibition at 0.5 h (CYP2D6)?
Its inhibition at 0.5 h is less than 11%.

And the inhibition at 0.5 h (CYP2E1)?
Its inhibition at 0.5 h is less than 11%.

And the inhibition at 0.5 h (CYP3A4 [11])?
The inhibition at 0.5 h was less than 11%.

And the Ki (Cytochrome P450 2C9)?
The Ki was 9.2 µM.

With `CC/C(=C(\c1ccccc1)c1ccc(OCCN(C)C)cc1)c1ccccc1` [TAMOXIFEN] as the compound, how does the EC50 (Hepatocyte [4]) read?
Its EC50 is 71.4 µM.

What about the EC50 (Hepatocyte [5]) of the same compound?
Its EC50 is 34.4 µM.

What about the EC50 (Hepatocyte [6]) of the same compound?
The EC50 was “Not Active”.

What about the EC50 (Hepatocyte [12]) of the same compound?
The EC50 was 67.6 µM.

What about the Activity (Hepatocyte [7]) of the same compound?
The Activity was “Toxic”.
